Structures can show the parent of a compound that is named as a salt.
How the values were obtained:
[1] = system: p-p53 (Ser15), p21, p-H2A.X (Ser139), p-ATM (Ser1981), p-Chk1 (Ser345) in HepG2 cells; conditions: HepG2 cells ± S9, 48 h; positive if at least one of five proteins shows fold-change above threshold (2.1 p-Chk1, p-H2A.X; 1.8 p21, p-ATM; 1.9 p-p53)
Description: (§1) HepG2 cells (Order No. HB-8065, Lot. 58483209, ATCC, Manassas, USA) were cultured in DMEM/F12 with L-Glutamine and 15 mM Hepes supplemented with 10% (v/v) FBS, 1% (v/v) penicillin (10 kU/ml)/streptomycin (10 mg/ml) solution, 0.1% (v/v) gentamicin (50 mg/ml), and 1 mM sodium pyruvate at 37° C. and 5% CO2 in culture flasks. Depending on the experiment, an appropriate number of cells were seeded onto plates after detaching of the cells using trypsin and cells were cultured at 37° C. and 5% CO2 for 24 h prior to treatment. All experiments were performed three times with cells of passages 4-20.
(§2) Cells were seeded onto black Poly-D-Lysin coated 96-well-plates (BD Biocoat, Franklin Lakes, USA) (0.02×10^6 cells/well) and left 24 h for adherence and then treated with test compounds at a maximum concentration of 1 mM which is recommended by the ICH S2(R1) guideline (EMA, 2011). For each compound, nine concentrations were tested with 2-fold serial dilutions. DMSO 1% (v/v) served as vehicle control for the experiments. The treatment procedure was different for direct-genotoxic and pro-genotoxic compounds. The treatment for direct genotoxic compounds was ongoing and was repeated daily over 48 h. Pro-genotoxic compounds were incubated for 6 h together with metabolic activation system (to limit the cytotoxic effect of the S9-mixture). After this period, cells were washed with cell media followed by 18-repeated daily over 48 h. The metabolic activation system used consisted of the following components and concentrations: 8 mM MgCl2, 32.8 mM KCl, 12 mM NADPH, 124 mM phosphate buffer and 2500 pmol/ml cytochrome P450 (CYP) content in the pre-mixture corresponding to 2.4 mM MgCl2, 9.8 mM KCl, 3.6 mM NADPH, 37.2 mM phosphate buffer, and 750 pmol/ml CYP as final concentrations after dilution 1:3.33 with cell culture media.
Two different staining procedures were performed for each compound with and without metabolic activation system:
After treatment, cells were rinsed with PBS (Gibco Invitrogen, Karlsruhe, Germany), and then fixed with 3.7% formaldehyde (Sigma-Aldrich, Taufkirchen, Germany) in PBS for 20 min. After an additional washing step with PBS, cells were blocked and permeabilized with 2% donkey serum (Millipore, Schwalbach, Germany) and 0.25% Triton X-100 (Sigma-Aldrich, Taufkirchen, Germany) in PBS for 30 min. Primary antibodies were diluted to final concentrations of 2 μg/ml anti-p-p53 (Ser15) rabbit monoclonal antibody IgG (Invitrogen, Karlsruhe, Germany), 0.8 μg/ml anti-p21 goat polyclonal antibody IgG, (R&D systems, Minneapolis, USA); 4 μg/ml anti-p-Histone H2A.X (Ser139) mouse monoclonal antibody IgG1 (Millipore, Schwalbach, Germany) in Blocking/Permeabilization solution were added afterwards. After incubation for 16-18 h, cells were washed with 0.05% Tween 20 (Calbiochem, Darmstadt, Germany) in PBS and the secondary antibody/16 μM Hoechst staining solution in Blocking/Permeabilization solution was added. Secondary antibodies were diluted 1:400 (Alexa Fluor 488 donkey anti-rabbit, Alexa Fluor 555 donkey anti-goat, Alexa Fluor 647 donkey anti-mouse, Invitrogen, Karlsruhe, Germany). After an incubation of 1 h, followed by two additional washing steps with 0.05% Tween 20, cells were washed with PBS and finally PBS was added and cells were measured.
After treatment, cells were rinsed with PBS (Gibco Invitrogen, Karlsruhe, Germany), and then stained with 10 μM CellTracker Green 5-Chloromethylfluorescein Diacetate (CMFDA) (Invitrogen, Karlsruhe, Germany) in cell culture media for 30 min. CMFDA is per se non-fluorescent and is hydrolyzed by esterase in viable cells to a fluorescent-dye. The reaction with thiol groups leads to a cell-impermeable fluorescent-dye-adduct. The esterase activity can be used as an indicator for viability of cells (Papadopoulos et al., 1994, J Immunol Methods 177, 101-11). Afterwards, cells were washed with PBS and fixed with 3.7% Formaldehyde (Sigma-Aldrich, Taufkirchen, Germany) in PBS for 20 min.

HepG2 cells = experiment: High content imaging cytotoxicity parameters: selected cell count per valid field (SCC) and CMFDA cytoplasm average intensity
Description: as §1, §2
After treatment, cells were rinsed with PBS (Gibco Invitrogen, Karlsruhe, Germany), and then stained with 10 μM CellTracker Green 5-Chloromethylfluorescein Diacetate (CMFDA) (Invitrogen, Karlsruhe, Germany) in cell culture media for 30 min. CMFDA is per se non-fluorescent and is hydrolyzed by esterase in viable cells to a fluorescent-dye. The reaction with thiol groups leads to a cell-impermeable fluorescent-dye-adduct. The esterase activity can be used as an indicator for viability of cells (Papadopoulos et al., 1994, J Immunol Methods 177, 101-11). Afterwards, cells were washed with PBS and fixed with 3.7% Formaldehyde (Sigma-Aldrich, Taufkirchen, Germany) in PBS for 20 min. After that, cells were washed with PBS and blocked and permeabilized with 2% donkey serum (Millipore, Schwalbach, Germany) and 0.25% Triton X-100 (Sigma-Aldrich, Taufkirchen, Germany) in PBS for 30 min. Primary antibodies were diluted in Blocking/Permeabilization solution to final concentrations of 4 μg/ml anti-p-Chk1 (Ser345) goat polyclonal antibody IgG (santa cruz, Santa Cruz, USA), 4 μg/ml anti-p-ATM (Ser1981) mouse monoclonal antibody IgG1K (Millipore, Schwalbach, Germany) and added to the cells. After incubation for 16-18 h, cells were washed with 0.05% Tween 20 (Calbiochem, Darmstadt, Germany) in PBS, and the secondary antibody/16 μM Hoechst staining solution Blocking/Permeabilization solution was added. Secondary antibodies were diluted 1:400 (Alexa Fluor 555 donkey anti-goat, Alexa Fluor 647 donkey anti-mouse, Invitrogen, Karlsruhe, Germany). After an incubation of 1 h, followed by two additional washing steps with 0.05% Tween 20, cells were washed with PBS and finally PBS was added and cells were measured.
Image acquisition was performed on the ArrayScan VTI HCS Reader (Cellomics, Pittsburgh, USA) using a 20× objective. To detect enough cells, 50 images starting at the middle of each well were gathered.
• Channel 1: selected cell count per valid field • Channel 2: CMFDA cytoplasm average intensity • Channel 3: p-Chk1 (Ser345) nucleus average intensity • Channel 4: p-ATM (Ser1981) nucleus average intensity

[2] = HepG2 cells, 48 h, CMFDA cytoplasm average intensity, with rat liver S9 (+S9)
[3] = HepG2 cells, 48 h, CMFDA cytoplasm average intensity, without metabolic activation (−S9)
[4] = HepG2 cells, 48 h, selected cell count per valid field, with rat liver S9 (+S9)
[5] = HepG2 cells, 48 h, selected cell count per valid field, without metabolic activation (−S9)

Row | Structure (SMILES) | CMFDA +S9 highest conc. <50% cytotox. over control (HepG2 cells; human) [µM] | CMFDA −S9 highest conc. <50% cytotox. over control (HepG2 cells; human) [µM] | SCC +S9 highest conc. <50% cytotox. over control (HepG2 cells; human) [µM] | SCC −S9 highest conc. <50% cytotox. over control (HepG2 cells; human) [µM] | CMFDA +S9 highest conc. <50% cytotox. over control (HepG2 cells; [2]) [µM] | CMFDA −S9 highest conc. <50% cytotox. over control (HepG2 cells; [3]) [µM] | SCC +S9 highest conc. <50% cytotox. over control (HepG2 cells; [4]) [µM] | SCC −S9 highest conc. <50% cytotox. over control (HepG2 cells; [5]) [µM] | CMFDA +S9 highest conc. <50% cytotox. over control (HepG2 cells; human, 48 h) [µM] | CMFDA −S9 highest conc. <50% cytotox. over control (HepG2 cells; human, 48 h) [µM] | SCC +S9 highest conc. <50% cytotox. over control (HepG2 cells; human, 48 h) [µM] | SCC −S9 highest conc. <50% cytotox. over control (HepG2 cells; human, 48 h) [µM] | further results
1 | Oc1ccc(Cl)cc1Cl [2,4-Dichlorophenol] | 1000 | 1000 | 500 | 250 |  |  |  |  |  |  |  |  | result for the five protein markers tested (compound set as positive or negative) [1]: positive
2 | COC(N)=O [Methyl carbamate] |  |  |  |  | 1000 | 1000 | 1000 | 1000 |  |  |  |  | 
3 | COS(C)(=O)=O [Methylmethane sulfonate] |  |  |  |  |  |  |  |  | 250 | 500 | 500 | 250 | 
4 | NC(=S)N(C1CCCCC1)C1CCCCC1 [N,N-dicyclohexyl thiourea] |  |  |  |  |  |  |  |  | 500 | 1000 | 1000 | 500 | 
5 | Cn1c(N)nc2ncc(-c3ccccc3)cc21 [PhIP•HCl, 2-Amino-1-methyl-6-phenylimidazo[4,5-f]pyridine] |  |  |  |  | 1000 | 500 | 1000 | 500 |  |  |  |  | 
6 | O=C1OC(=O)c2ccccc21 [Phthalic anhydride] |  |  |  |  | 1000 | 1000 | 1000 | 1000 |  |  |  |  | 
7 | CC(=O)[C@H]1CC[C@H]2[C@@H]3CCC4=CC(=O)CC[C@]4(C)[C@H]3CC[C@]12C [Progesterone] |  |  |  |  |  |  |  |  | 250 | 62.5 | 500 | 125 | 
8 | c1ccncc1 [Pyridine] | 1000 | 1000 | 1000 | 1000 |  |  |  |  |  |  |  |  | 
9 | O=[As]O [Sodium arsenite] |  |  |  |  | 125 | 62.5 | 125 | 7.81 |  |  |  |  | 
10 | O=C1NS(=O)(=O)c2ccccc21.[Na] [Sodium saccharin] | 1000 | 1000 | 1000 | 1000 |  |  |  |  |  |  |  |  | 
